A short description of series [1]: Bonding force by alizarin red method, PEG-FPBA. It is filed as binding. To be noted: Ex 468 nm/Em 572 nm. As for the experimental part: The bonding force was evaluated by the alizarin red method, which has been established as a method for quantifying the bonding force between boronic acid and the diol structure. The principle of the alizarin red method is briefly shown below by taking the method carried out in present Examples as an example. […]
Solution A, and Solution B or Solution C were mixed in various ratios and the fluorescence measurement was performed (Ex=468 nm, Em=572 nm) using a disposable cell. After substituting the obtained fluorescence intensity and the concentration of each FPBA into the following expression (1) and creating a calibration curve by the least squares method, the equilibrium constant K0 of the ARS-FPBA system was calculated from the slope of the calibration curve. Next, Solution B or Solution C was mixed with Solution D, E, F, or G containing each diol compound in various ratios in the combination of B+D, B+E, C+F, and C+G, and the fluorescence measurement was performed (Ex=468 nm, Em=572 nm) using a disposable cell. After substituting the obtained fluorescence intensity and the concentration of each diol compound into the following expression (2) and creating a calibration curve by the least squares method, the equilibrium constant K1 of each diol compound-BPA system was calculated from the slope of the calibration curve. […]

The nature of series [2]: Bonding force by alizarin red method, PEG-P[Lys(FPBA)10]20. To be noted: for relative equilibrium constant with PEG10k-P[Lys(FPBA)10]20: alizarin red method, Ex 468 nm/Em 572 nm. In kind it is binding. As for the experimental part:
The bonding force was evaluated by the alizarin red method, which has been established as a method for quantifying the bonding force between boronic acid and the diol structure. The principle of the alizarin red method is briefly shown below by taking the method carried out in present Examples as an example.
[Final Concentrations of GFP, TA, PEG-FPBA, and PEG-P[Lys(FPBA)10]20] • Solution A: ARS (9.0×10^−6 M) • Solution B: ARS (9.0×10^−6 M)+PEG-FPBA (FPBA concentration: 2.0×10^−3 M) • Solution C: ARS (9.0×10^−6 M)+PEG-P[Lys(FPBA)10]20 (FPBA concentration: 2.0×10^−3 M) • Solution D: ARS (9.0×10^−6 M)+PEG-FPBA (FPBA concentration: 2.0×10^−3 M)+tannic acid (diol concentration=5.0×10^−4 M) • Solution E: ARS (9.0×10^−6 M)+PEG-FPBA (2.0×10^−3 M)+gallic acid (diol concentration=5.0×10^−4 M) • Solution F: ARS (9.0×10^−6 M)+PEG-P[Lys(FPBA)10]20 (FPBA concentration: 2.0×10^−3 M)+tannic acid (diol concentration=5.0×10^−4 M) • Solution G: ARS (9.0×10^−6 M)+PEG-P[Lys(FPBA)10]20 (FPBA concentration: 2.0×10^−3 M)+gallic acid (diol concentration=5.0×10^−4 M)
Solution A, and Solution B or Solution C were mixed in various ratios and the fluorescence measurement was performed (Ex=468 nm, Em=572 nm) using a disposable cell. After substituting the obtained fluorescence intensity and the concentration of each FPBA into the following expression (1) and creating a calibration curve by the least squares method, the equilibrium constant K0 of the ARS-FPBA system was calculated from the slope of the calibration curve. Next, Solution B or Solution C was mixed with Solution D, E, F, or G containing each diol compound in various ratios in the combination of B+D, B+E, C+F, and C+G, and the fluorescence measurement was performed (Ex=468 nm, Em=572 nm) using a disposable cell. After substituting the obtained fluorescence intensity and the concentration of each diol compound into the following expression (2) and creating a calibration curve by the least squares method, the equilibrium constant K1 of each diol compound-BPA system was calculated from the slope of the calibration curve. The equilibrium constant obtained from the calibration curve is shown in Table 2 as a relative equilibrium constant.
[formula] • [L0]=Concentration of FPBA added • [S0]=Concentration of diol added • [I0]=Concentration of ARS
ΔIf=Ifs−Ifa • ΔIfc=Reciprocal of intercept of graph created in ARS-FPBA system • Ifs=Fluorescence intensity of ARS-FPBA • Ifa=Fluorescence intensity of solution A • K0=Equilibrium constant of ARS-FPBA • Kf=Equilibrium constant of diol compound—equilibrium constant of FPBA

Series [3] can be described thus: Formation of ternary complex encapsulating various substances: particle diameter by DLS or FCS. The note with it: for Particle diameter of encapsulated substance: substance alone. It is filed as physicochemical. Here is the method:
Ternary complexes were formed using not only the GFP protein but also a small molecule medicine, a peptide, an adeno-associated virus, an inorganic particle, a nucleic acid, and the like, and the particle diameter change was measured. As the measurement method, dynamic light scattering (DLS) or fluorescence correlation spectroscopy (FCS) was used.
Temperature: 25° C., measurement time: 10 seconds, number of integrations: 10 times
The method for measuring dynamic light scattering is as follows. Dynamic Light Scattering (DLS Zetasizer Nano ZS (manufactured by Malvern Instruments) was used to carry out DLS measurement at a detection angle of […] and a temperature of 25° C. A He—Ne laser (633 nm) was used as the incident beam. Each complex solution was added to a small glass cuvette (capacity: 12 μL, ZEN2112, manufactured by Malvern Instruments). The data obtained from the decay rate in the photon correlation function was analyzed by the Cumulant method, and then the hydrodynamic diameter (the arithmetic mean diameter based on the number of complexes) of each complex was calculated by the above Einstein-Stokes equation. […]
The pitavastatin solution and the tannic acid solution were mixed to adjust a pitavastatin/TA solution. Then, PEG-P[Lys(FPBA)10]20 was added to the pitavastatin/TA solution to adjust a pitavastatin/TA/PEG-P[Lys(FPBA)10]20 (a pitavastatin ternary complex) solution. […]

The nature of series [4]: Pharmacokinetics of rose bengal ternary complex (blood retention). The note with it: 3 hours after intravenous administration, plasma fluorescence. It is filed as in vivo, mouse. As for the experimental part:
[Final Concentrations of rose bengal, TA, and PEG-P[Lys(FPBA)10]20] • Rose bengal: 0.1 mg/mL • Tannic acid: 1.0 mg/mL • PEG-P[Lys(FBPA)10]20: 16.5 mg/mL
The rose bengal solution and the tannic acid solution were mixed to adjust a rose bengal/TA solution. Then, PEG-P[Lys(FPBA)10]20 was added to the rose bengal/TA solution to adjust a rose bengal solution, a rose bengal/TA complex solution, and a rose bengal/TA/PEG-P[Lys(FPBA)10]20 (a rose bengal ternary complex) solution.
200 μl of the prepared solution described above was intravenously administered to the tail vein of the model mouse. One to three hours after the sample administration, dissection was carried out to recover blood, which was subsequently subjected to centrifugation at 5,000 g×10 minutes at 20° C. to recover 100 μl of a plasma component, and 700 μl of Passive Lysis Buffer was added thereto. Then, the fluorescence intensities (Ex/Em: 520 nm/570 nm) of the plasma component and the administered sample were measured with Spark to evaluate the blood retention. In the figure, rose bengal/TA/PEG-P[Lys(FPBA)10]20 is denoted by a rose bengal/TA/polymer.

Marks after values point to notes of the source that are not given here.

Regarding `O=C(OC[C@H]1O[C@@H](OC(=O)c2cc(O)c(O)c(OC(=O)c3cc(O)c(O)c(O)c3)c2)[C@H](OC(=O)c2cc(O)c(O)c(OC(=O)c3cc(O)c(O)c(O)c3)c2)[C@@H](OC(=O)c2cc(O)c(O)c(OC(=O)c3cc(O)c(O)c(O)c3)c2)[C@@H]1OC(=O)c1cc(O)c(O)c(OC(=O)c2cc(O)c(O)c(O)c2)c1)c1cc(O)c(O)c(OC(=O)c2cc(O)c(O)c(O)c2)c1` [Tannic acid (TA), Tannic acid], the “relative equilibrium constant with PEG-FPBA” value in series [1] is 1,877. Also, in series [2], the “bonding constant with PEG-P[Lys(FPBA)10]20 as compared with PEG-FPBA” value turned out to be 5 times and the “relative equilibrium constant with PEG10k-P[Lys(FPBA)10]20” value is recorded as 8,827.
Turning to `O=C([O-])C[C@H](O)C[C@H](O)/C=C/c1c(C2CC2)nc2ccccc2c1-c1ccc(F)cc1.O=C([O-])C[C@H](O)C[C@H](O)/C=C/c1c(C2CC2)nc2ccccc2c1-c1ccc(F)cc1.[Ca+2]` [Pitavastatin calcium], the “Particle diameter of encapsulated substance” value in series [3] was “Aggregated”; in series [3] (listed as pitavastatin), 4586 nm.
In the case of `O=C(O)c1cc(O)c(O)c(O)c1` [Gallic acid], the “relative equilibrium constant with PEG-FPBA” value in series [1] was 2,030. Also, in series [2], the “bonding constant with PEG-P[Lys(FPBA)10]20 as compared with PEG-FPBA” value is 2.5 times and the “relative equilibrium constant with PEG10k-P[Lys(FPBA)10]20” value is 5,112.
In the case of `O=C(O)c1c(Cl)c(Cl)c(Cl)c(Cl)c1-c1c2cc(I)c(=O)c(I)c-2oc2c(I)c(O)c(I)cc12` [Rose bengal], the concentration in blood result in series [4] is given as “about 0.22%”. The “Particle diameter of encapsulated substance” value in series [3] was 0.7 nm.
Take Bleomycin sulfate: the “Particle diameter of encapsulated substance” value in series [3] stood at 0.6 nm.
On to `C=Cc1c(C)c2cc3nc(c(CC(=O)O)c4[nH]c(cc5nc(cc1[nH]2)C(C)=C5CC)c(C)c4C(=O)O)[C@@H](CCC(=O)O)[C@@H]3C` [Chlorine 6, Chlorin e6], for which, in series [3], the “Particle diameter of encapsulated substance” value was determined as 1.2 nm.
Regarding “β-D-galactosidase: β-D-galactosidase (βGal): Mw 540 kDa, enzyme”, in series [3], the “Particle diameter of encapsulated substance” value came to 13.9 nm. In addition, in series [3] (ternary complex substance/TA/PEG-P[Lys(FPBA)10]20, dynamic light scattering method), the “Particle diameter of complex” value is given as 42.8* nm. In series [3] (ternary complex, dynamic light scattering method), the “Polydiversity (PDI)” value is reported as 0.18.
Gelonin: the “Particle diameter of encapsulated substance” value in series [3] is listed as 4.1 nm.
